# According to patent US12606834B2 (priority 2015, dated 2026):
# Tested on: E. coli R182
# Assay type: cell-based, Escherichia coli
# Excerpt: We compared the combination of P1 CRISPR phage (targeting ftsA) and ciprofloxacin to the use of P1 CRISPR phage alone for killing E. coli R182, a ciprofloxacin-resistant strain (FIG. 10A). Ciprofloxacin (Cip) dose was the highest therapeutically relevant concentration (4 micrograms per milliliter) to which the R182 strain is known to be resistant. E. coli were infected with CRISPR phage targeting the E. coli ftsA gene at a range of multiplicities of infection (MOI).
# In addition, the combination of P1 CRISPR phage (targeting ftsA) and imipenem, a standard of care antibiotic in E. coli infections, was compared with P1 CRISPR phage alone for killing E. coli R182, a ciprofloxacin-resistant strain (FIG. 10B). […] The E. coli cells were infected with CRISPR phage at a range of MOI.
# Finally, we compared the loss of viable E. coli R182 cells following exposure to imipinem, P1 CRISPR phage targeting ftsA, or a combination of both (FIG. 10C). For relevant conditions (n=3 for each condition), imipenem was held at a constant dose (LD50 for E. coli R182) and CRISPR phage was held to a MOI of 2.
SMILES,"bacterial viability (ciprofloxacin alone, 4 micrograms per milliliter, FIG. 10A)","CFU reduction (constant dose (the LD50 for E. coli R182), FIG. 10B)"
O=C(O)c1cn(C2CC2)c2cc(N3CCNCC3)c(F)cc2c1=O [ciprofloxacin],did not reduce bacterial viability,
"C[C@@H](O)[C@H]1C(=O)N2C(C(=O)O)=C(SCCN=CN)C[C@H]12 [Imipenem, imipenem]",,0.3 log
